Measured values as given in patent US9040707B2, “Bicyclic thiazoles as allosteric modulators of mGluR5 receptors” (Janssen Pharmaceutica NV, priority 2009, dated 2015).

Experiments:
human mGluR5a receptor = molecular target: T1, human mGluR5a receptor (Homo sapiens, UniProt P41594); test: Functional Assay 2: Ca2+ mobilization, HEK cells with human mGluR5a receptor (H10H cell line); type: cell-based; conditions: H10H cell line; for EC50: glutamate EC20; for Emax: HEK293, maximum average response at a single concentration, relative to glutamate ECMax
T1 construct: host or cells: HEK293A (monoclones H10H and H12H)
Description: Human mGluR5a cDNA in pCMV6-XL6 mammalian expression plasmid was purchased from OriGene Technologies, Inc. (catalogue number SC326357) and subcloned into pcDNA3.1(−). […] Monoclones were named for the species (“H” for human) plus the location on the plate (e.g. “10H”).
The following day, the growth medium was removed and the cells were washed with assay buffer containing 1× Hank's balanced salt solution (Invitrogen, Carlsbad, Calif.), 20 mM HEPES, 2.5 mM probenecid, pH 7.4 and left with 20 μL of this reagent. Following this step, the cells were loaded with calcium indicator dye, fluo-4 AM, to a final concentration of 2 μM and incubated for 40-45 min at 37° C. The dye solution was removed and replaced with assay buffer. Cell plates were held for 10-15 min at room temperature and were then loaded into the Functional Drug Screening System 6000 (FDSS 6000, Hamamatsu, Japan).
After establishment of a fluorescence baseline for about 3 seconds, the compounds of the present invention were added to the cells, and the response in cells was measured. 2.3 minutes later an EC20 concentration of the mGluR5 receptor agonist glutamate was added to the cells, and the response of the cells was measured for about 1.7 minutes. All test compounds were dissolved and diluted to a concentration of 10 mM in 100% DMSO and then serially diluted into assay buffer for a 2× stock solution in 0.6% DMSO; stock compounds were then added to the assay for a final DMSO concentration of 0.3% after the first addition to the assay well. Calcium fluorescence measures were recorded as fold over basal fluorescence; raw data was then normalized to the maximal response to glutamate.
The concentration-response curves of compounds of the present invention, obtained in the presence of EC20 of mGluR5 receptor agonist glutamate to determine positive allosteric modulation, were generated using Microsoft Excel with IDBS XLfit add-ins. The raw data file containing all time points was used as the data source in the analysis template. This was saved by the FDSS as a tab-delimitted text file. Data were normalized using a static ratio function (F/F0) for each measurement of the total 350 values per well divided by each well's initial value. […] This is sufficient time to capture the peak amplitude of the cellular calcium response. […] Each of the three values collected at each concentration of test compound were weighted evenly. […] These two methods are in good agreement for curves with a clear plateau at the high concentration range.

T1 sequence (P41594 21-1180 isoform P41594-2 limits assumed): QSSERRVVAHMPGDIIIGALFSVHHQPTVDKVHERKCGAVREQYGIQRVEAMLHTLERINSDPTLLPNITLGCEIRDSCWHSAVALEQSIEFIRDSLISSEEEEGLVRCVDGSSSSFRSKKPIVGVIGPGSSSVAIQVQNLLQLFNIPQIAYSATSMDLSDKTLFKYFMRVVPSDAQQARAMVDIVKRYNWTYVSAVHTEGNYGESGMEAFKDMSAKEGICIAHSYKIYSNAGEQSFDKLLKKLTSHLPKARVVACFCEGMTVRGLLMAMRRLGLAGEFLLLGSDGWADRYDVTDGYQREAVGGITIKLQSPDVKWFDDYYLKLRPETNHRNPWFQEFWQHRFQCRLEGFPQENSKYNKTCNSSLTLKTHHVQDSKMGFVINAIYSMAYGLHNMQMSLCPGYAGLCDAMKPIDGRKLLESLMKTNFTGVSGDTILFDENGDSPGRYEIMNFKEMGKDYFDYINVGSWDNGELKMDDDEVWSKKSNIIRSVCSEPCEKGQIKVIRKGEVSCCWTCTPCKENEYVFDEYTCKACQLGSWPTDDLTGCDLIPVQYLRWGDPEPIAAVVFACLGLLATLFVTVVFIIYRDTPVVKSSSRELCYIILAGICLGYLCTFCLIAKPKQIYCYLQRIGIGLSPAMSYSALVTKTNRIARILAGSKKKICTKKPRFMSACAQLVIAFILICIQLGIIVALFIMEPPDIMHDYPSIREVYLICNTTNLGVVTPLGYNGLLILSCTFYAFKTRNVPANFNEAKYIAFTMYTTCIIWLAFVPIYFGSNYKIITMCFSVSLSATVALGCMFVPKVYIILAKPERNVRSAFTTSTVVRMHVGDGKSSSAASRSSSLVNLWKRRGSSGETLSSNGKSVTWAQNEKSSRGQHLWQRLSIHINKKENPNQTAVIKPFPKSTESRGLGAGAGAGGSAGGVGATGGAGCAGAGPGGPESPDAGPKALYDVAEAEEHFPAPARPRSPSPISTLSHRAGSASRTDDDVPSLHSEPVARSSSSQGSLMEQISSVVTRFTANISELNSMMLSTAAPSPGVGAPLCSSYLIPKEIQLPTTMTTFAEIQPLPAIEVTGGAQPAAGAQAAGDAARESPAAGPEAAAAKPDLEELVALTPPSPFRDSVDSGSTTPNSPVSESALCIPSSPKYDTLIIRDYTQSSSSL

Compound	EC50 (human mGluR5a receptor)	Emax (human mGluR5a receptor)	melting point
O=C1c2sc(COc3ccccc3)nc2CCCN1c1ccc(F)cc1 [Compound 11, 5-(4-fluorophenyl)-5,6,7,8-tetrahydro-2-(phenoxymethyl)-4H-thiazolo[5,4-c]azepin-4-one]	214 nM	81%	120.4 °C
O=C1c2sc(OCc3ccccc3)nc2CCN1Cc1ccc(F)cc1F [Compound 13, 5-[(2,4-difluorophenyl)methyl]-6,7-dihydro-2-(phenylmethoxy)-thiazolo[5,4-c]pyridin-4(5H)-one]	1860 nM	48%	108 to 111.2 °C
O=C1c2sc(OCc3cccc(F)c3)nc2CCN1c1ccc(F)cc1 [Compound 19, 5-(4-fluorophenyl)-2-[(3-fluorophenyl)methoxy]-6,7-dihydro-thiazolo[5,4-c]pyridin-4(5H)-one]	214 nM	38%	127.4 to 128.9 °C
N#Cc1cccc(COc2nc3c(s2)C(=O)N(c2ccc(F)cc2F)CC3)c1 [Compound 20, 3-[[[5-(2,4-difluorophenyl)-4,5,6,7-tetrahydro-4-oxothiazolo[5,4-c]pyridin-2-yl]oxy]methyl]-benzonitrile]	158 nM	25%	112.9 °C
Cc1cccc(COc2nc3c(s2)C(=O)N(c2ccc(F)cc2F)CC3)c1 [Compound 21, 5-(2,4-difluorophenyl)-6,7-dihydro-2-[(3-methylphenyl)methoxy]-thiazolo[5,4-c]pyridin-4(5H)-one]	331 nM	54%	95.2 to 97.2 °C
O=C1c2sc(OCc3ccccc3F)nc2CCN1c1ccc(F)cc1 [Compound 22, 5-(4-fluorophenyl)-2-[(2-fluorophenyl)methoxy]-6,7-dihydro-thiazolo[5,4-c]pyridin-4(5H)-one]	372 nM	45%	91 to 92.5 °C
O=C1c2sc(COc3cccc(F)c3)nc2CCN1c1ccc(F)cc1 [Compound 25, 2-[(3-fluorophenoxy)methyl]-5-(4-fluorophenyl)-6,7-dihydro-thiazolo[5,4-c]pyridin-4(5H)-one]	174 nM	63%	152.8 °C
O=C1c2sc(COc3ccccc3)nc2CCN1c1ccc(F)cc1F [Compound 29, 5-(2,4-difluorophenyl)-6,7-dihydro-2-(phenoxymethyl)-thiazolo[5,4-c]pyridin-4(5H)-one]	97.7 nM	81%	268.9 to 284.1 °C
O=C1c2sc(COc3ccccc3F)nc2CCN1c1ccc(F)cc1 [Compound 31, 2-[(2-fluorophenoxy)methyl]-5-(4-fluorophenyl)-6,7-dihydro-thiazolo[5,4-c]pyridin-4(5H)-one]	282 nM	71%	> 280 °C
O=C1c2sc(COc3ccc(F)cc3)nc2CCN1c1ccc(F)cc1F [Compound 32, 5-(2,4-difluorophenyl)-2-[(4-fluorophenoxy)methyl]-6,7-dihydro-thiazolo[5,4-c]pyridin-4(5H)-one]	224 nM	81%	> 280 °C
C[C@@H](N1CCc2nc(COc3ccccc3F)sc2C1=O)C(C)(C)C [Compound 33, 2-[(2-fluorophenoxy)methyl]-6,7-dihydro-5-[(1R)-1,2,2-trimethylpropyl]-thiazolo[5,4-c]pyridin-4(5H)-one]	> 30200 nM	38%	98.4 to 99.6 °C
COc1ccccc1N1CCc2nc(COc3cccc(F)c3)sc2C1=O [Compound 37, 2-[(3-fluorophenoxy)methyl]-6,7-dihydro-5-(2-methoxyphenyl)-thiazolo[5,4-c]pyridin-4(5H)-one]	871 nM	83%	61.2 to 64.2 °C
CN1CCCc2nc(COc3ccccc3)sc2C1=O [Compound 38, 5,6,7,8-tetrahydro-5-methyl-2-(phenoxymethyl)-4H-thiazolo[5,4-c]azepin-4-one]	1070 nM	70%	105.9 °C
O=C1c2sc(COc3ccccc3)nc2CCN1CC1CC1 [Compound 39, 5-(cyclopropylmethyl)-6,7-dihydro-2-(phenoxymethyl)-thiazolo[5,4-c]pyridin-4(5H)-one]	209 nM		292.6 to 302.9 °C
O=C1c2sc(COc3cccc(F)c3)nc2CCN1C1CC1 [Compound 40, 5-cyclopropyl-2-[(3-fluorophenoxy)methyl]-6,7-dihydro-thiazolo[5,4-c]pyridin-4(5H)-one]	1550 nM	39%	243.9 to 245.7 °C
O=C1c2sc(COc3cccc(F)c3)nc2CCN1CC1CC1 [Compound 41, 5-(cyclopropylmethyl)-2-[(3-fluorophenoxy)methyl]-6,7-dihydro-thiazolo[5,4-c]pyridin-4(5H)-one]	224 nM	66%	275.4 to 277.8 °C
O=C1c2sc(COc3ccccc3F)nc2CCN1CC1CC1 [Compound 42, 5-(cyclopropylmethyl)-2-[(2-fluorophenoxy)methyl]-6,7-dihydro-thiazolo[5,4-c]pyridin-4(5H)-one]	1100 nM	67%	85.3 to 87.1 °C
O=C1c2sc(COc3ccc(F)cc3)nc2CCN1CC1CC1 [Compound 43, 5-(cyclopropylmethyl)-2-[(4-fluorophenoxy)methyl]-6,7-dihydro-thiazolo[5,4-c]pyridin-4(5H)-one]	759 nM	59%	254 to 259.1 °C
O=C1c2sc(COc3ccccc3)nc2CCN1C1CC1 [Compound 44, 5-cyclopropyl-6,7-dihydro-2-(phenoxymethyl)-thiazolo[5,4-c]pyridin-4(5H)-one]	4370 nM	36%	252.1 to 255.3 °C
Cc1cccc(N2CCc3nc(COc4ccccc4)sc3C2=O)n1 [Compound 46, 6,7-dihydro-5-(6-methyl-2-pyridinyl)-2-(phenoxymethyl)-thiazolo[5,4-c]pyridin-4(5H)-one]	550 nM	84%	155.5 °C
O=C1c2sc(COc3ccc(F)cc3)nc2CCN1c1ccc(F)cn1 [Compound 53, 2-[(4-fluorophenoxy)methyl]-5-(5-fluoro-2-pyridinyl)-6,7-dihydro-thiazolo[5,4-c]pyridin-4(5H)-one]	295 nM	56%	185.8 to 186.8 °C
O=C1c2sc(COc3cccc(F)c3)nc2CCN1c1ccc(F)cn1 [Compound 54, 2-[(3-fluorophenoxy)methyl]-5-(5-fluoro-2-pyridinyl)-6,7-dihydro-thiazolo[5,4-c]pyridin-4(5H)-one]	288 nM	79%	125.8 to 126.4 °C
O=C1c2sc(COc3ccccc3F)nc2CCN1c1ccc(F)cn1 [Compound 55, 2-[(2-fluorophenoxy)methyl]-5-(5-fluoro-2-pyridinyl)-6,7-dihydro-thiazolo[5,4-c]pyridin-4(5H)-one]	550 nM	63%	151.8 to 153 °C
O=C1c2sc(COc3ccccc3)nc2CCN1c1cncc(F)c1 [Compound 57, 5-(5-fluoro-3-pyridinyl)-6,7-dihydro-2-(phenoxymethyl)-thiazolo[5,4-c]pyridin-4(5H)-one]	1700 nM	62%	167.6 °C
O=C1c2sc(COc3ccccc3F)nc2CCN1c1ccc(F)cc1F [Compound 59, 5-(2,4-difluorophenyl)-2-[(2-fluorophenoxy)methyl]-6,7-dihydro-thiazolo[5,4-c]pyridin-4(5H)-one]	195 nM	76%	100.1 to 105.2 °C
O=C1c2sc(COc3ccccc3F)nc2CCN1C1CC1 [Compound 61, 5-cyclopropyl-2-[(2-fluorophenoxy)methyl]-6,7-dihydro-thiazolo[5,4-c]pyridin-4(5H)-one]	> 30200 nM	27%	235.8 to 240.2 °C
O=C1c2sc(COc3ccc(F)cc3)nc2CCN1C1CC1 [Compound 62, 5-cyclopropyl-2-[(4-fluorophenoxy)methyl]-6,7-dihydro-thiazolo[5,4-c]pyridin-4(5H)-one]	> 10000 nM	51%	126.3 to 130.8 °C
